Experimental data taken from patent US7998936B2, “Use of timosaponin Bll in the preparation of a medicament or product for the prevention and treatment of stroke” (Institute of Radiation Medicine, Academy of Military …, priority 2004, dated 2011).

What was measured:
[1] = Fenton reaction system; paramagnetic method; cited from earlier work
[2] = test system: cerebral ischemia-reperfusion model rats; experiment: Inflammatory factors in brain tissues in cerebral ischemia-reperfusion rats (overall statement); details: 40 mg/kg
platelet aggregation = details: cited from earlier work
[3] = test system: FeCl3-Induced Middle Cerebral Artery Thrombosis (MCAT) Rats; experiment: Neurological symptom score in middle cerebral artery thrombosis rats; assay type: in vivo, rat; details: for effect on neurological symptoms (in words): 20 mg/kg and 40 mg/kg, 7 days; for neurological symptomatic score 6 h: 6 h after operation; for neurological symptomatic score 6 h / neurological symptomatic score 24 h: full score 4; for neurological symptomatic score 24 h: 24 h after operation
Excerpt: Tamura and Liu's methods were used with modifications to prepare the model. Rats were anesthetized by intraperitoneal injection of 10% chloral hydrate (0.35 g/kg); and fixed with right arm reclining. An arc incision of about 1.5 cm in length was made at the midpoint between the link of paropia and external auditory canal and temporalis was removed to expose the temporal bone. […] The surrounding-tissues were protected with a piece of plastic film. A small piece of quantitative filter paper, which had absorbed 10 μL of a 50% ferric chloride solution, was applied on this segment of middle cerebral artery. The filter paper was removed after 30 min, and local tissues were rinsed with normal saline solution, followed by suture layer by layer. Then the experimental rats were put back to rearing cage. The temperature was controlled at 24° C. For the sham-operation group, the operation procedures were the same as the model group except for the application of the ferric chloride solution.
The experimental animals were tested for behaviors 6 h and 24 h after operation according to the Sederson's method with modifications. Criteria: (1) The tail of the rat was lifted to observe the flexibility of the forelimb, with both forelimbs symmetrically stretching forward scored as 0, and occurrence of any or all of shoulder inflexion, elbow inflexion, shoulder intorsion in the contralateral fore-limb opposite to the operation side scored as 1. (2) The animal was placed on a plane, and its shoulders were pushed to the opposite direction to check resistance, Equivalency and strong resistance in both sides was scored as 0, and reduction in resistance in the contralateral side was scored as 1. (3) Both forelimbs of the rat were placed on wire gauze to observe the muscular tension. […] According to the criteria above, the full score is 4, and the higher the score is, the more serious the behavior disorder of the animal is.

[4] = test system: streptozocin-induced diabetic mouse; details: cited from earlier work
[5] = test system: acute blood stagnation model rats; experiment: Whole blood and plasma viscosities in acute blood stagnation model rats; assay type: in vivo, rat; details: for effect on whole blood and plasma viscosities (in words): 10 mg/kg, 20 mg/kg and 40 mg/kg, high, middle and low shear rates
Excerpt: MAO Teng-min's methods were modified to prepare the model.

IL-1β = experiment: ELISA of IL-1β in brain tissue of cerebral ischemia-reperfusion rats; details: brain homogenate
TNF-α = experiment: ELISA of TNF-α in brain tissue of cerebral ischemia-reperfusion rats; details: brain homogenate
TGF-β = experiment: ELISA of TGF-β in brain tissue of cerebral ischemia-reperfusion rats; details: brain homogenate
[6] = test system: Middle Cerebral Artery Thrombosis (MCAT) Rats; experiment: Water content in brain tissues in middle cerebral artery thrombosis rats; assay type: in vivo, rat; details: for Water content of affected hemisphere / Water content of unaffected hemisphere: 24 h after operation
IL-10 = experiment: ELISA of IL-10 in brain tissue of cerebral ischemia-reperfusion rats; details: brain homogenate
[7] = test system: acute blood stagnation model rats; experiment: Erythrocyte aggregation and deformability in acute blood stagnation model rats; assay type: in vivo, rat; details: for effect on erythrocyte aggregation index (in words) / effect on erythrocyte deformability (in words): vs. model group; for Erythrocyte aggregation SS / Erythrocyte deformability SSS: area under curve; for Erythrocyte aggregation MAXD: maximal erythrocyte aggregation index; for Erythrocyte deformability MAXDI: maximal erythrocyte deformation index
Procedure: MAO Teng-min's methods were modified to prepare the model. Rats were subcutaneously injected with 0.8 mg/kg adrenaline twice at 1 h and 5 h after administration on the fifth day, and were placed into ice-water at 4° C. for 5 min at 2 h after the first injection of adrenaline.
To 40 μl of heparinized blood, 1 ml of deforming solution was added and mixed thoroughly. A sample of 0.8 ml was tested in an erythrocyte aggregation/deformability tester, and erythrocyte deformability was expressed as maximal erythrocyte deformation index and area under curve (SSS). Another 0.8 ml of anticoagulated blood was tested in an erythrocyte aggregation/deformability tester, and erythrocyte aggregation was expressed as maximal erythrocyte aggregation index (MAXD) and area under curve ([…]).

[8] = 40 mg/kg, listed as timosaponin BII, 40 mg/kg

For `C[C@@H](CCC1(O)O[C@H]2C[C@H]3[C@@H]4CC[C@@H]5C[C@@H](O[C@@H]6O[C@H](CO)[C@H](O)[C@H](O)[C@H]6O[C@@H]6O[C@H](CO)[C@@H](O)[C@H](O)[C@H]6O)CC[C@]5(C)[C@H]4CC[C@]3(C)[C@H]2[C@@H]1C)CO[C@@H]1O[C@H](CO)[C@@H](O)[C@H](O)[C@H]1O` (stereo partly drawn) [Timosaponin BII, (25S)-26-O-β-D-glucopyranosyl-22-hydroxy-5β-furostane-3β,26-diol-3-O-β-D-glucopyranosyl(1→2)-β-D-galactopyranoside], the free radicals cleared [1] is listed as 57%, the “effect on levels of inflammatory factors IL-1β, TNF-α, IL-10, TGF-β (in words)” value [2] is listed as “significantly reduced the levels of these inflammatory factors” and the “clotting time (in words)” value (platelet aggregation) is listed as “prolonging clotting time”. The “platelet aggregation (in words)” value (platelet aggregation) was “obviously inhibiting platelet aggregation”, the “effect on neurological symptoms (in words)” value ([3]; vs. model group P<0.05, P<0.01) was “ameliorate neurological symptoms” and the “effect on neurological symptoms (in words)” value ([3]; vs. model group P<0.05, P<0.01, listed as timosaponin BIT) was “significantly lower the neurological symptom score”. The “neurological symptomatic score 6 h” value ([3]; 10 mg/kg by gavage 7 days) was 2.08 ± 0.67, the “neurological symptomatic score 6 h” value ([3]; 20 mg/kg by gavage 7 days) was 1.82 ± 0.75 and the “neurological symptomatic score 6 h” value ([3]; 40 mg/kg by gavage 7 days) was 1.50 ± 0.71. The “neurological symptomatic score 24 h” value ([3]; 10 mg/kg by gavage 7 days) was 2.08 ± 0.79, the “neurological symptomatic score 24 h” value ([3]; 20 mg/kg by gavage 7 days) was 2.00 ± 0.45 and the “neurological symptomatic score 24 h” value ([3]; 40 mg/kg by gavage 7 days) was 1.90 ± 0.74. The “blood sugar level (in words)” value [4] was “can lower blood sugar level”, the “Plasma viscosity (100 S^−1)” value ([5]; 10 mg/kg by gavage 5 days) was 1.40 ± 0.10 and the “Whole blood viscosity 1 S^−1” value ([5]; 10 mg/kg by gavage 5 days) was 27.03 ± 4.64. The “Whole blood viscosity 5 S^−1” value ([5]; 10 mg/kg by gavage 5 days) was 11.02 ± 1.38, the “Whole blood viscosity 30 S^−1” value ([5]; 10 mg/kg by gavage 5 days) was 6.10 ± 0.85 and the “Whole blood viscosity 200 S^−1” value ([5]; 10 mg/kg by gavage 5 days) was 4.45 ± 0.71. The “effect on whole blood and plasma viscosities (in words)” value ([5]; P<0.05, P<0.01) was “significantly lowered whole blood and plasma viscosities”, the “effect on whole blood and plasma viscosities (in words)” value ([5]; P<0.05, P<0.01, listed as timosaponin BII) was “significantly reduce the whole blood and plasma viscosities” and the “Plasma viscosity (100 S^−1)” value ([5]; 20 mg/kg by gavage 5 days) was 1.36 ± 0.10. For the same molecule, the “Whole blood viscosity 1 S^−1” value ([5]; 20 mg/kg by gavage 5 days) was 33.13 ± 5.70, the “Whole blood viscosity 5 S^−1” value ([5]; 20 mg/kg by gavage 5 days) was 12.91 ± 1.82 and the “Whole blood viscosity 30 S^−1” value ([5]; 20 mg/kg by gavage 5 days) was 6.55 ± 0.93. The “Whole blood viscosity 200 S^−1” value ([5]; 20 mg/kg by gavage 5 days) was 4.49 ± 0.70, the “Plasma viscosity (100 S^−1)” value ([5]; 40 mg/kg by gavage 5 days) was 1.38 ± 0.12 and the “Whole blood viscosity 1 S^−1” value ([5]; 40 mg/kg by gavage 5 days) was 31.21 ± 4.29. The “Whole blood viscosity 5 S^−1” value ([5]; 40 mg/kg by gavage 5 days) was 12.46 ± 1.33, the “Whole blood viscosity 30 S^−1” value ([5]; 40 mg/kg by gavage 5 days) was 6.45 ± 0.60 and the “Whole blood viscosity 200 S^−1” value ([5]; 40 mg/kg by gavage 5 days) was 4.42 ± 0.38. The IL-1β (IL-1β; 10 mg/kg by gavage 5 days) was 9.70 ± 0.30 pg/mL, the IL-1β (IL-1β; 40 mg/kg by gavage 5 days) was 7.98 ± 0.80 pg/mL and the TNFα (TNF-α; 10 mg/kg by gavage 5 days) was 8.44 ± 0.62 pg/mL. The TNFα (TNF-α; 40 mg/kg by gavage 5 days) was 7.65 ± 0.61 pg/mL, the TGF-β (TGF-β; 10 mg/kg by gavage 5 days) was 12.70 ± 3.57 pg/mL and the TGF-β (TGF-β; 40 mg/kg by gavage 5 days) was 10.30 ± 3.79 pg/mL. For the same molecule, the “effect on water content of brain / cerebral edema (in words)” value ([6]; 40 mg/kg, vs. model group P<0.05, 40 mg/kg) was “significantly lowered the water content in the affected hemisphere”, the “effect on water content of brain / cerebral edema (in words)” value ([6]; 40 mg/kg, vs. model group P<0.05, listed as timosaponin BIT, 40 mg/kg) was “significantly reduce the water content of brain” and the “Water content of affected hemisphere” value ([6]; 10 mg/kg) was 80.52 ± 0.69%. For the same molecule, the “Water content of unaffected hemisphere” value ([6]; 10 mg/kg) was 79.51 ± 0.57%, the “Water content of affected hemisphere” value ([6]; 20 mg/kg) was 80.46 ± 0.79% and the “Water content of unaffected hemisphere” value ([6]; 20 mg/kg) was 79.41 ± 0.38%. The “Water content of affected hemisphere” value ([6]; 40 mg/kg) was 80.15 ± 0.99 %, the “Water content of unaffected hemisphere” value ([6]; 40 mg/kg) was 79.47 ± 0.44% and the IL-10 (IL-10; 10 mg/kg by gavage 5 days) was 14.49 ± 11.78 pg/mL. The IL-10 (IL-10; 40 mg/kg by gavage 5 days) was 11.19 ± 5.16 pg/mL, the “effect on erythrocyte aggregation index (in words)” value ([7]; 40 mg/kg, 40 mg/kg) was “reduce the erythrocyte agglutination index” and the “effect on erythrocyte deformability (in words)” value ([7]; 40 mg/kg, 40 mg/kg) was “significantly improve the deformation ability of erythrocytes”. For the same molecule, the “effect on erythrocyte aggregation index (in words)” value [7, 8] was “decrease in erythrocyte aggregation index”, the “effect on erythrocyte deformability (in words)” value [7, 8] was “significant increase in erythrocyte deformability index” and the “Erythrocyte aggregation SS” value ([7]; 10 mg/kg) was 186.67 ± 28.85. The “Erythrocyte deformability SSS” value ([7]; 10 mg/kg) was 363.88 ± 19.58, the “Erythrocyte aggregation SS” value ([7]; 20 mg/kg) was 163.04 ± 50.23 and the “Erythrocyte deformability SSS” value ([7]; 20 mg/kg) was 363.97 ± 27.87. For the same molecule, the “Erythrocyte aggregation SS” value ([7]; 40 mg/kg) was 152.78 ± 28.11, the “Erythrocyte deformability SSS” value ([7]; 40 mg/kg) was 374.26 ± 15.82 and the “Erythrocyte aggregation MAXD” value ([7]; 10 mg/kg) was 0.94 ± 0.14. The “Erythrocyte aggregation MAXD” value ([7]; 20 mg/kg) was 0.81 ± 0.26, the “Erythrocyte aggregation MAXD” value ([7]; 40 mg/kg) was 0.76 ± 0.14 and the “Erythrocyte deformability MAXDI” value ([7]; 10 mg/kg) was 0.72 ± 0.05. For the same molecule, the “Erythrocyte deformability MAXDI” value ([7]; 20 mg/kg) was 0.71 ± 0.05 and the “Erythrocyte deformability MAXDI” value ([7]; 40 mg/kg) was 0.73 ± 0.03.
